Literature values in patent US10925890B2, “Use of dextran sulfate” (TX MEDIC AB, priority 2014, dated 2021).

System: angiogenesis
Conditions: cited from earlier work

| Substance | Effect on angiogenesis (U.S. Pat. No. 5,135,920) | Effect on angiogenesis in vivo (Glycobiology 3, 567-573 (1993), Pathophysiology of Haemostasis and Thrombosis 23, 141-149 (1993)) |
| --- | --- | --- |
| dextran sulfate | angiostatic |  |
| heparin |  | inhibited angiogenesis |
